This note sets out measurements from ChEMBL document CHEMBL4725370, “Discovery of Proteolysis-Targeting Chimera Molecules that Selectively Degrade the IRAK3 Pseudokinase” (J Med Chem, 2020).

pIC50: −log10 of the molar value. Active and inactive are the calls of the source. The rule behind the calls is not given here. A value given as a limit tells only on which side of the number the result lay.

What is called pIC50 is the IC50 on a negative log10 scale, so that one unit is a factor of ten. What is called logD is the decadic logarithm of the distribution of all forms, ionised or not, between an organic phase and buffer at a given pH. One may read the inhibition as how much of the control response was suppressed. A low value points to little suppression. One may read the DC50 as the concentration giving 50% degradation. As usually defined, the Emax is the maximal effect, on the per cent scale that the assay sets. One may read the efflux ratio as a quotient of directional permeabilities that is used to spot active efflux. Usually Papp A→B stands for how fast a substance crosses the layer from the apical side.

Series [1] deals with T1, Protein cereblon/Interleukin-1 receptor-associated kinase 3 (Homo sapiens, UniProt Q9Y616+Q96SW2). Nature of the series: Protac activity at CRBN/IRAK3 in LPS-induced human THP1 cells assessed as induction of IRAK3 degradation at 1 uM by Western blot analysis relative to control. It counts as cell-based. Conditions: THP-1. In general terms: Immunoblotting shows a protein as a band on a membrane.
Target sequence in this assay (Q96SW2 whole entry, looked up, one chain of several): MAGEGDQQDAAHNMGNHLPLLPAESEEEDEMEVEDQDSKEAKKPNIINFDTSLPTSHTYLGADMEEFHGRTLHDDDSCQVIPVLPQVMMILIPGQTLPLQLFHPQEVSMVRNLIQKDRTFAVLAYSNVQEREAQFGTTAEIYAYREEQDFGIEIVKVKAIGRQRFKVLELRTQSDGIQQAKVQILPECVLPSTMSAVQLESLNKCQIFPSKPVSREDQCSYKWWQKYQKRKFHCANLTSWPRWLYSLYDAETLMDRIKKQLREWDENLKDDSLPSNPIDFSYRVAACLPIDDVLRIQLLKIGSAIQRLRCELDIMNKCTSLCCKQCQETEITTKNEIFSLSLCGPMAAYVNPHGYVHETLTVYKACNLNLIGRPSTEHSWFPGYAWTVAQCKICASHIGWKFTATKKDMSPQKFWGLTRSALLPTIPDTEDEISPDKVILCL

For series [2], the target named is T2, Interleukin-1 receptor-associated kinase 3 (Homo sapiens, UniProt Q9Y616).
T2 sequence (Q9Y616 whole entry): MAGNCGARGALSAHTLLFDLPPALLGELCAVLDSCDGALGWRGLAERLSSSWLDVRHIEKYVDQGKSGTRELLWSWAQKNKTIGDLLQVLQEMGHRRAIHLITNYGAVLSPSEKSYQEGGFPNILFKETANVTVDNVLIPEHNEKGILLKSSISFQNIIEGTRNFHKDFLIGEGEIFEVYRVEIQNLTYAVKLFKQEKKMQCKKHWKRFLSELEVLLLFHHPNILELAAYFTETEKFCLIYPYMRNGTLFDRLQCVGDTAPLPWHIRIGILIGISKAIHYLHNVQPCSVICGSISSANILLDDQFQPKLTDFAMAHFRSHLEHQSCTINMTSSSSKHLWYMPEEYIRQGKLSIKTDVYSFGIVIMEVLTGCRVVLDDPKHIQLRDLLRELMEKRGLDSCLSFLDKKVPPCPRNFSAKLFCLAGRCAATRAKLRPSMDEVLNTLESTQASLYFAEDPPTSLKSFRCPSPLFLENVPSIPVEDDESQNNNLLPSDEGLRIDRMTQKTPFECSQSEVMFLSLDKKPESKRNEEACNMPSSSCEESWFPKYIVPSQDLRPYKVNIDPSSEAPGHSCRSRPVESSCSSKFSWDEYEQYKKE
Nature of the series: Inhibition of kinase tracer 236 binding to recombinant human full-length GST-tagged IRAK3 expressed in insect cells by Lanthascreen Eu kinase binding assay. For orientation: TR-FRET usually uses a lanthanide donor and a delayed reading to cut background.

The target in series [3] is T3, Interleukin-1 receptor-associated kinase 4 (Homo sapiens, UniProt Q9NWZ3).
T3 sequence (Q9NWZ3 whole entry): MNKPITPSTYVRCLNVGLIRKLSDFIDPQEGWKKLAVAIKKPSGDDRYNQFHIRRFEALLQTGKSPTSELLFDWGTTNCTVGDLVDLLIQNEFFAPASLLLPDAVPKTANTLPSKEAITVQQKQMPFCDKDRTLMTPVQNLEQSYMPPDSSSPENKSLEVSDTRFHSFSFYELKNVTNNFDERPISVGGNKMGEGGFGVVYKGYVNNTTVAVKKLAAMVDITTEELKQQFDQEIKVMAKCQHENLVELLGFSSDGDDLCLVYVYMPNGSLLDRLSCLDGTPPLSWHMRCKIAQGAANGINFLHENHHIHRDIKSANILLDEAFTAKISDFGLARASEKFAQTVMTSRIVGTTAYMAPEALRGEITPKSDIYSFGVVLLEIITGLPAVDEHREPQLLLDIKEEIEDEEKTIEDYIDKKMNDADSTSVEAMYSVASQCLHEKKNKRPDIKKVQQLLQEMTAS
Kind of series: Inhibition of recombinant human full-length His-tagged IRAK4 expressed in baculovirus expression system using 5-FAM-IPTSPITTTYFFFKKK-COOH as substrate measured after 240 mins by mobility shift assay.

The nature of series [4]: Octanol/buffer partition coefficient, log D of the compound at pH 7.4 by shake-flask method. It counts as physicochemical.
In series [5] the target is T1, Protein cereblon/Interleukin-1 receptor-associated kinase 3. Nature of the series: Protac activity at CRBN/IRAK3 in LPS-induced human THP1 cells assessed as induction of IRAK3 degradation at 10 uM by Western blot analysis relative to control. It counts as cell-based. The following applies: THP-1.
Target sequence in this assay (Q96SW2 whole entry, looked up, one chain of several): as the sequence (Q96SW2 whole entry, looked up, one chain of several) above
In series [6] the target is Interleukin-1 receptor-associated kinase 3 (Homo sapiens) (UniProt Q9Y616). Nature of the series: Inhibition of IRAK3 (unknown origin) at 0.1 uM relative to control.
Series [7] concerns the target Serine/threonine-protein kinase haspin (Homo sapiens) (UniProt Q8TF76). Kind of series: Inhibition of GSG2 (unknown origin) at 0.1 uM relative to control.
Series [8] deals with T4, Serine/threonine-protein kinase haspin (Homo sapiens, UniProt Q8TF76).
T4 sequence (Q8TF76 whole entry): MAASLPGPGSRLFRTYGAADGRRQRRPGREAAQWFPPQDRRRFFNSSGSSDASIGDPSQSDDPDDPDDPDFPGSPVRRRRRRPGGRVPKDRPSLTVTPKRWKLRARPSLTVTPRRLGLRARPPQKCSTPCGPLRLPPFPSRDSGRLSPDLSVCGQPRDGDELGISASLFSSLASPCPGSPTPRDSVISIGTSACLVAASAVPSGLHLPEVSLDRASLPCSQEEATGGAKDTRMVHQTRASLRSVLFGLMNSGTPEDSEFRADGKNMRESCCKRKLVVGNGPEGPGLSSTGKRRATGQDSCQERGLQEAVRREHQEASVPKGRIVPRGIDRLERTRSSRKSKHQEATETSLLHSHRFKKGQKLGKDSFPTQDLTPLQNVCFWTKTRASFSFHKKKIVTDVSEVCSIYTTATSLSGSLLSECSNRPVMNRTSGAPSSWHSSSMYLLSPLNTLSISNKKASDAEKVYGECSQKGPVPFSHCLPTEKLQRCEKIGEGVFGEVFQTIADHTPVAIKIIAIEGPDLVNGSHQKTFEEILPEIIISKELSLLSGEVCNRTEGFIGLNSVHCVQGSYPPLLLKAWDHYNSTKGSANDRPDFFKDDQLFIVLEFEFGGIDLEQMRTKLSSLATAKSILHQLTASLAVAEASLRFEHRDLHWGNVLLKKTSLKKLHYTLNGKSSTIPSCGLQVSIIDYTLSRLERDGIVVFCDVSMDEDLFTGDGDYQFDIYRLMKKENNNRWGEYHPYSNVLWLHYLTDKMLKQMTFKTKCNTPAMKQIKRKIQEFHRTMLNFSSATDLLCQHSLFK
Nature of the series: Inhibition of GSG2 (unknown origin).

For series [9], the target named is CDK8/Cyclin C (Homo sapiens) (UniProt P49336+P24863). Kind of series: Inhibition of CDK8/cyclin C (unknown origin) at 0.1 uM relative to control. The series is classed as protein-complex assay.
For series [10], the target named is Cyclin-C/Cyclin-dependent kinase 19 (Homo sapiens) (UniProt Q9BWU1+P24863). Nature of the series: Inhibition of CDK11/cyclin C (unknown origin) at 0.1 uM relative to control. The series is classed as protein-complex assay.
Another series deals with Protein cereblon (Homo sapiens, UniProt Q96SW2). Kind of series: Inhibition of CRBN (unknown origin).
The target of series [11] is Interleukin-1 receptor-associated kinase 1 (Homo sapiens, UniProt P51617). Kind of series: Inhibition of recombinant human N-terminal GST-tagged IRAK1 (194 to 712 residues) expressed in baculovirus expression system using 5-FAM-KKKVSRSGLYRSPSMPENLNRPR-COOH as substrate measured after 240 mins by mobility shift assay.
The target of series [12] is T1, Protein cereblon/Interleukin-1 receptor-associated kinase 3. Nature of the series: Protac activity at CRBN/IRAK3 in LPS-induced human THP1 cells assessed as induction of IRAK3 degradation after 16 hrs by Western blot analysis. The series is classed as cell-based. The following applies: thp-1.
Target sequence in this assay (Q96SW2 whole entry, one chain of several): as the sequence (Q96SW2 whole entry, looked up, one chain of several) above
The target is the same in series [13]. Nature of the series: Protac activity at CRBN/IRAK3 in LPS-induced human THP1 cells assessed as induction of IRAK3 degradation after 16 hrs by Western blot analysis relative to control. Conditions: THP-1. It counts as cell-based.
Target sequence in this assay (Q96SW2 whole entry, looked up, one chain of several): as the sequence (Q96SW2 whole entry, looked up, one chain of several) above
The nature of series [14]: Efflux ratio of apparent permeability in human Caco-2 cells. For orientation: Passage across Caco-2 layers is used to estimate intestinal permeability.
Series [15] in a line: Intrinsic apparent permeability across apical to basolateral side in human Caco-2 cells.
Series [16] deals with T1, Protein cereblon/Interleukin-1 receptor-associated kinase 3. Kind of series: Protac activity at CRBN/IRAK3 in human THP1 cells assessed as induction of IRAK3 degradation at 0.1 to 10 uM measured after 24 hrs by Western blot analysis. The following applies: THP-1, dose microM 0.1-10, time […]. It counts as cell-based.
Target sequence in this assay (Q96SW2 whole entry, looked up, one chain of several): as the sequence (Q96SW2 whole entry, looked up, one chain of several) above
For series [17] the target is unchanged. Nature of the series: Protac activity at CRBN/IRAK3 in human PBMC derived primary macrophages assessed as induction of IRAK3 degradation at 0.3 uM preincubated for 8 hrs followed by LPS-stimulation and measured after 8 to 32 hrs by Western blot analysis. The following applies: Primary macrophage. The series is classed as tissue-based.
Target sequence in this assay (Q96SW2 whole entry, looked up, one chain of several): as the sequence (Q96SW2 whole entry, looked up, one chain of several) above
Series [18] shares this target. Nature of the series: Protac activity at CRBN/IRAK3 in human PBMC derived primary macrophages assessed as induction of IRAK3 degradation at 0.3 uM measured after 8 to 32 hrs by Western blot analysis. The series is classed as tissue-based. Conditions: Primary macrophage, time hrs 8-32.
Target sequence in this assay (Q96SW2 whole entry, looked up, one chain of several): as the sequence (Q96SW2 whole entry, looked up, one chain of several) above

Interleukin-1 receptor-associated kinase 1, sequence (P51617 whole entry, the tested form may be a part): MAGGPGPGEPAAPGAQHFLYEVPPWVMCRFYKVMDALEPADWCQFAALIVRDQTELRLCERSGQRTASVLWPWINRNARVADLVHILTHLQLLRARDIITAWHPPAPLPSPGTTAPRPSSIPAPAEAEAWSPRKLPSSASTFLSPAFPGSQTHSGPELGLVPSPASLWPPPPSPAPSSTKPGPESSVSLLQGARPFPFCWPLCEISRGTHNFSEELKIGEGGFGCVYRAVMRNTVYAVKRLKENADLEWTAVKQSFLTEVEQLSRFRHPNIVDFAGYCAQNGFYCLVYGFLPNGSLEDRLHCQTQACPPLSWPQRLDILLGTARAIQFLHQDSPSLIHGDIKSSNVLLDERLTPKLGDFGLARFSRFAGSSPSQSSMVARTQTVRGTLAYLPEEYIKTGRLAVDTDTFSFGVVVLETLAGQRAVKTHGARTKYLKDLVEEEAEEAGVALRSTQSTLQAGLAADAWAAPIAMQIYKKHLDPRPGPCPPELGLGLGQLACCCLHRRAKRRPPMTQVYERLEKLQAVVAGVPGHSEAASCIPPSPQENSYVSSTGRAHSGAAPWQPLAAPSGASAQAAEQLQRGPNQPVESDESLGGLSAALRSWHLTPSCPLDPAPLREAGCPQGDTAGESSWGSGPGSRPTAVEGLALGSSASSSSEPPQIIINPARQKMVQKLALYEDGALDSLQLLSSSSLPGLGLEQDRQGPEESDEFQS
Protein cereblon, sequence (Q96SW2 whole entry, the tested form may be a part): as the sequence (Q96SW2 whole entry, looked up, one chain of several) above

With `CC(C)c1ccn2ncnc(N[C@H]3CC[C@@H](N4CCN(C(=O)CCC(=O)NCCOCCOCCOCCOCCNc5cccc6c5C(=O)N(C5CCC(=O)NC5=O)C6=O)CC4)CC3)c12` (stereo partly drawn), the Activity in [1] is 85%; in series [5], 55%. In addition, the negative-log IC50 (pIC50) is 7.66 in series [2] and below 6.00 in series [3]. The pH-dependent lipophilicity (logD) in series [4] was found to be 2.
As to `CC(C)c1ccn2ncnc(N[C@H]3CC[C@@H](N4CCN(C(=O)CCC(=O)NCCOCCOCCOCCNc5cccc6c5C(=O)N(C5CCC(=O)NC5=O)C6=O)CC4)CC3)c12` (stereo partly drawn), the values for the Activity in series [1] and in [5] were 42% and 34%, respectively. The pIC50 in series [2] was 7.68; in [3], below 6.00. In series [4], this compound yielded a logD of 2.1.
In the same order, the values of `CC(C)c1ccn2ncnc(N[C@H]3CC[C@@H](N4CCN(C(=O)CCOCCOCCOCCOCCNc5cccc6c5C(=O)N(C5CCC(=O)NC5=O)C6=O)CC4)CC3)c12` (stereo partly drawn) are 48%, 27%, 7.30, below 5.00 and 2.2.
With `CC(=O)N1CCN([C@H]2CC[C@@H](Nc3ncnn4ccc(C(C)C)c34)CC2)CC1`, the inhibition in [6] is 91%; in [7] it was 55%; in series [9], 39%; in series [10] it was 51%. The results for the negative-log IC50 (pIC50) in series [2] and in series [8] were 8.22 and 6.82, respectively.
Take `CC(C)c1ccn2ncnc(N[C@H]3CC[C@@H](N4CCN(C(=O)CCC(=O)N5CCC(CN6CCN(c7ccc8c(c7)C(=O)N(C7CCC(=O)NC7=O)C8=O)CC6)CC5)CC4)CC3)c12` (stereo partly drawn): the pIC50 is 8.22 in [2], 5.25 in series [3], 5.92 against Protein cereblon and 5.25 in series [11]. The logD in series [4] amounted to 3.1. In addition, the DC50 in [12] was 52 nM. In addition, the Emax in series [13] was found to be 74%.
Consider `CC(C)c1ccn2ncnc(N[C@H]3CC[C@@H](N4CCN(C(=O)CCC(=O)NCCCCCCNc5cccc6c5C(=O)N(C5CCC(=O)NC5=O)C6=O)CC4)CC3)c12` (stereo partly drawn), for which the Activity in series [1] and in [5] was 0% in each case. Besides, the negative-log IC50 (pIC50) in [2] was 7.68; in [3] it was 5.59. The compound further yielded a logD in series [4] of 3.7.
For `CC(=O)N1CCN([C@H]2CC[C@@H](Nc3ncnc4[nH]cc(C(C)C)c34)CC2)CC1`, the pIC50 in series [2] was 8.40; in [3], 6.08; in [11], 5.85. Further, in [4], the log distribution coefficient (logD) is 2.3. Besides, the efflux ratio in [14] stood at 4.3. For the same compound, the apparent permeability from apical to basolateral (Papp A→B) in [15] was 12 ×10⁻⁶ cm/s.
As to `CC(C)c1ccn2ncnc(N[C@H]3CC[C@@H](N4CCN(C(=O)CCC(=O)NCCCCNc5cccc6c5C(=O)N(C5CCC(=O)NC5=O)C6=O)CC4)CC3)c12` (stereo partly drawn), the Activity in [1] and in series [5] was 0% in each case. Moreover, the negative-log IC50 (pIC50) is 7.89 in series [2] and below 6.00 in series [3]. For the same compound, the log distribution coefficient (logD) in series [4] turned out to be 2.9.
On to `CC(C)c1ccn2ncnc(N[C@H]3CC[C@@H](N4CCN(C(=O)CCOCCOCCOCCNc5cccc6c5C(=O)N(C5CCC(=O)NC5=O)C6=O)CC4)CC3)c12` (stereo partly drawn), for which the figures for the Activity in [1] and in series [5] were 24% and 21%, respectively. The pIC50 in series [2] was 7.47; in series [3] it was 5.11. The compound further registered a logD in series [4] of 2.3.
For the compound `CC(C)c1ccn2ncnc(N[C@H]3CC[C@@H](N4CCN(C(=O)CCC(=O)N5CCC(CCN6CCN(c7ccc8c(c7)C(=O)N(C7CCC(=O)N(C)C7=O)C8=O)CC6)CC5)CC4)CC3)c12` (stereo partly drawn), the outcome in [16], in series [17] and in series [18] was inactive. Also, the negative-log IC50 (pIC50) in [2] is 8.40; in series [3] it was below 6.00; at Protein cereblon, below 4.92; in series [11], 5.47. Moreover, the logD in [4] is 3.7. The DC50 in series [12] was above 10000 nM.
